Experimental data reported in patent publication US20240043420A1, “7-AZAINDOLE COMPOUNDS FOR INHIBITION OF BCR-ABL TYROSINE KINASES” (EnLiven Therapeutics, Inc., priority 2020, published 2024).

Tests used:
ABL1 (T315I) = ABL1 (T315I) (Homo sapiens, UniProt P00519, T315I); test: Luminescence-based ABL kinase assay (ADP-Glo, 300 μM ATP), T315I mutant; format: biochemical
Procedure: (§1) Kinase activity of ABL1 was measured using the ADP-Glo system (Promega), which measures formation of ADP using a luminescence-based method. Compounds were serially diluted in DMSO. 20 nL of compound or DMSO only (high control, HC) were added to a 384-well plate (OptiPlate-384, PerkinElmer) using an Echo550 liquid handler (Labcyte). 15 μL of kinase solution (10 mM MgCl2, 0.01% Brij-35, 2 mM DTT, 0.05% BSA, 1 mM EGTA, 50 mM HEPES pH 7.5, and 3.325 nM ABL1 [Carna Biosciences]) were added to each well of the 384-well plate containing the compounds. No enzyme control wells were included (low control, LC). The plate was incubated at room temperature for 30 minutes. 5 μL of a second solution containing 10 mM MgCl2, 0.01% Brij-35, 2 mM DTT, 0.05% BSA, 1 mM EGTA, 50 mM HEPES pH 7.5, 6 μM Peptide 2 (Perkin Elmer, Cat No 760346), and 1.2 mM ATP were added to each well to start the kinase reaction. The plate was incubated for 90 minutes at room temperature. 20 μL of ADP-Glo reagent (Promega) were then added to each well and the plate was incubated for 40 minutes at room temperature. 40 μL of kinase detection reagent (Promega) was added to each well and the plate was incubated for an additional 45 minutes at room temperature. During this step, ADP was converted to ATP, a substrate for luciferase, to produce luminescence signal. Luminescence was measured on an Envision plate reader (Perkin Elmer). Luminescence signal positively correlates with kinase activity. The percent kinase activity was calculated as follows: percent kinase activity=100×(Lumsample−LumLC)/(LumHC−LumLC). As noted above, DMSO only and no enzyme wells were used as high and low controls, respectively. IC50 values were calculated using the XLFit software.

HL60 cells = test: HL60 cell proliferation assay (CellTiter-Glo); format: cell-based; details: Homo sapiens, HL-60, 72 h, CellTiter-Glo viability, read-out: Cell Line (IC50, nM) HL60
Procedure: (§2) K562 and HL60 cells, cultured in Iscove's Modified Dulbecco's Media (IMDM) supplemented with 10% FBS, were harvested at 50-80% confluency and plated at 2,000 cells per well (K562) or 1,500 cells per well (HL60) in 384-well tissue culture plates. A subset of wells contained media only (low control, LC). Compounds were serially diluted in DMSO. 40 nL of compound or DMSO only (high control, HC) were added to each well using an Echo 550 liquid handler (Labcyte). The plates were placed in a 37° C. incubator with 5% CO2 for 72 hours. Cell viability was measured using a CellTiter-Glo luminescent cell viability assay (Promega), which allows for relative quantification of metabolically active cells by luminescence-based measurements of intracellular ATP concentrations. Briefly, plates were removed from the incubator and equilibrated for 15 minutes at room temperature prior to the addition of 40 μL of CellTiter-Glo reagent. Plates were then incubated for 30 minutes at room temperature. Luminescence was measured using an EnSpire plate reader (Perkin Elmer). As noted above, luminescence values from wells with DMSO only or media without cells were used as high and low controls (HC and LC), respectively. Normalized percent viability was calculated as follows: percent viability=100×(Lumsample−LumLC)/(LumHC−LumLC).

K562 cells = test: K562 cell proliferation assay (CellTiter-Glo); format: cell-based; details: Homo sapiens, K562, 72 h, CellTiter-Glo viability, read-out: Cell Line (IC50, nM) K562
Procedure: as §2

ABL1 = target: T1, ABL1 (Homo sapiens, UniProt P00519); test: Luminescence-based ABL kinase assay (ADP-Glo, 300 μM ATP); format: biochemical
T1 construct: purchased Carna Biosciences
Procedure: as §1

Row | SMILES | IC50 (ABL1 (T315I)) [nM] | IC50 (HL60 cells) [nM] | IC50 (K562 cells) [nM] | IC50 (ABL1) [nM]
1 | COc1ccccc1-c1c[nH]c2nc(NC(=O)[C@@H]3C[C@@H]3CCO)ccc12 (relative stereo) [Compound 105, cis-2-(2-hydroxyethyl)-N-(3-(2-methoxyphenyl)-1H-pyrrolo[2,3-b]pyridin-6-yl)cyclopropanecarboxamide] | 19.9 | > 10000 | 489 | 109
2 | O=C(Nc1ccc2c(-c3cccnc3OC(F)F)c[nH]c2n1)[C@@H]1C[C@@H]1F [Compound 70, (1S,2S)—N-[3-[2-(difluoromethoxy)pyridin-3-yl]-1H-pyrrolo[2,3-b]pyridin-6-yl]-2-fluorocyclopropane-1-carboxamide] | 140 | > 10000 | 312 | 60.3
3 | COc1cc2ocnc2cc1-c1c[nH]c2nc(NC(=O)[C@@H]3C[C@@H]3F)ccc12 [Compound 88, (1S,2S)-2-fluoro-N-(3-(6-methoxybenzo[d]oxazol-5-yl)-1H-pyrrolo[2,3-b]pyridin-6-yl)cyclopropane-1-carboxamide] | 30.9 | > 10000 | 84.1 | 18.6
4 | COc1cc2[nH]nnc2cc1-c1c[nH]c2nc(NC(=O)[C@@H]3C[C@@H]3F)ccc12 [Compound 96, (1S,2S)-2-fluoro-N-[3-(6-methoxy-1H-1,2,3-benzotriazol-5-yl)-1H-pyrrolo[2,3-b]pyridin-6-yl]cyclopropane-1-carboxamide] | 8.93 | > 10000 | 862 | 8.87
5 | CCOc1cccc(F)c1-c1n[nH]c2nc(NC(=O)[C@@H]3C[C@@H]3F)ccc12 [Compound 67, (1S,2S)—N-(3-(2-ethoxy-6-fluorophenyl)-1H-pyrazolo[3,4-b]pyridin-6-yl)-2-fluorocyclopropane-1-carboxamide] | 37.7 | > 10000 | 1140 | 157
6 | COc1c(-c2n[nH]c3nc(NC(=O)[C@@H]4C[C@@H]4F)ccc23)ccc2[nH]cnc12 [Compound 90, (1S,2S)-2-fluoro-N-[3-(4-methoxy-1H-1,3-benzodiazol-5-yl)-1H-pyrazolo[3,4-b]pyridin-6-yl]cyclopropane-1-carboxamide] | 15 | > 10000 | 1100 | 21.7
7 | COc1ncc(F)cc1-c1c[nH]c2nc(NC(=O)[C@@H]3C[C@@H]3F)ccc12 [Compound 92, (1S,2S)-2-fluoro-N-[3-(5-fluoro-2-methoxypyridin-3-yl)-1H-pyrrolo[2,3-b]pyridin-6-yl]cyclopropane-1-carboxamide] | 27.3 | > 10000 | 248 | 39.4
8 | CCOc1ncccc1-c1n[nH]c2nc(NC(=O)[C@@H]3C[C@@H]3F)ccc12 [Compound 64, (1S,2S)—N-[3-(2-ethoxypyridin-3-yl)-1H-pyrazolo[3,4-b]pyridin-6-yl]-2-fluorocyclopropane-1-carboxamide] | 140 | > 10000 | 610 | 56.9
9 | COc1ccc(F)cc1-c1n[nH]c2nc(NC(=O)NCCN3CCN(C)CC3)ccc12 [Compound 79, 3-[3-(5-fluoro-2-methoxyphenyl)-1H-pyrazolo[3,4-b]pyridin-6-yl]-1-[2-(4-methylpiperazin-1-yl)ethyl]urea] | 108 | > 10000 | 719 | 143
10 | O=C(Nc1ccc2c(-c3ccccc3F)c[nH]c2n1)C1CC1 [Compound 5, N-[3-(2-fluorophenyl)-1H-pyrrolo[2,3-b]pyridin-6-yl]cyclopropanecarboxamide] | 32.9 | > 10000 | 713 | 119
11 | COc1ccccc1-c1c[nH]c2nc(NC(=O)[C@H]3C[C@@H]3CO)ccc12 (relative stereo) [Compound 108, trans-2-(hydroxymethyl)-N-(3-(2-methoxyphenyl)-1H-pyrrolo[2,3-b]pyridin-6-yl)cyclopropane-1-carboxamide] | 17.8 | > 10000 | 419 | 78.6
12 | O=C(Nc1ccc2c(-c3ccccc3OC3CC3)n[nH]c2n1)[C@@H]1C[C@@H]1F [Compound 94, (1S,2S)—N-(3-(2-cyclopropoxyphenyl)-1H-pyrazolo[3,4-b]pyridin-6-yl)-2-fluorocyclopropane-1-carboxamide] | 6.36 | 7580 | 55.6 | 10.8
13 | COc1cc2ncoc2cc1-c1c[nH]c2nc(NC(=O)[C@@H]3C[C@@H]3F)ccc12 [Compound 87, (1S,2S)-2-fluoro-N-(3-(5-methoxybenzo[d]oxazol-6-yl)-1H-pyrrolo[2,3-b]pyridin-6-yl)cyclopropane-1-carboxamide] | 6.59 | > 10000 | 94.1 | 9.54
14 | COc1cc2nccn2cc1-c1c[nH]c2nc(NC(=O)[C@@H]3C[C@@H]3F)ccc12 [Compound 72, (1S,2S)-2-fluoro-N-(3-(7-methoxyimidazo[1,2-a]pyridin-6-yl)-1H-pyrrolo[2,3-b]pyridin-6-yl)cyclopropane-1-carboxamide] | 162 | > 10000 | 1020 | 70.2

Next, values leading:

Row | IC50 (ABL1 (T315I)) [nM] | IC50 (HL60 cells) [nM] | IC50 (K562 cells) [nM] | IC50 (ABL1) [nM] | SMILES
15 | 15.9 | > 10000 | 174 | 20.9 | COc1nccc(C)c1-c1c[nH]c2nc(NC(=O)[C@@H]3C[C@@H]3F)ccc12 [Compound 113, (1S,2S)-2-fluoro-N-[3-(2-methoxy-4-methylpyridin-3-yl)-1H-pyrrolo[2,3-b]pyridin-6-yl]cyclopropane-1-carboxamide]
16 | 30.6 | > 10000 | 359 | 317 | COc1ccccc1-c1c[nH]c2nc(NC(=O)NCCOCCN(C)C)ccc12 [Compound 124, 3-[2-[2-(dimethylamino)ethoxy]ethyl]-1-[3-(2-methoxyphenyl)-1H-pyrrolo[2,3-b]pyridin-6-yl]urea]
17 | 14.3 | > 10000 | 34.5 | 14.6 | COc1nc(C)nc(OC)c1-c1c[nH]c2nc(NC(=O)[C@@H]3C[C@@H]3F)ccc12 [Compound 142, (1S,2S)—N-(3-(4,6-dimethoxy-2-methylpyrimidin-5-yl)-1H-pyrrolo[2,3-b]pyridin-6-yl)-2-fluorocyclopropane-1-carboxamide]
18 | 18.2 | > 10000 | 382 | 74.8 | COc1ccccc1-c1c[nH]c2nc(NC(=O)NCCC3CCN(C4COC4)CC3)ccc12 [Compound 110, 3-[3-(2-methoxyphenyl)-1H-pyrrolo[2,3-b]pyridin-6-yl]-1-[2-[1-(oxetan-3-yl)piperidin-4-yl]ethyl]urea]
19 | 1.48 | > 10000 | 24.4 | 3.73 | COc1cccc(OC)c1-c1c[nH]c2nc(NC(=O)[C@@H]3C[C@@H]3F)ccc12 [Compound 118, (1S,2S)—N-[3-(2,6-dimethoxyphenyl)-1H-pyrrolo[2,3-b]pyridin-6-yl]-2-fluorocyclopropane-1-carboxamide]
20 | 151 | > 10000 | 382 | 124 | COc1c(-c2c[nH]c3nc(NC(=O)[C@@H]4C[C@@H]4F)ccc23)ccn2ncnc12 [Compound 115, (1S,2S)-2-fluoro-N-(3-[8-methoxy-[1,2,4]triazolo[1,5-a]pyridin-7-yl]-1H-pyrrolo[2,3-b]pyridin-6-yl)cyclopropane-1-carboxamide]
21 | 3860 | > 10000 | 2010 | 2580 | O=C(Nc1ccc2c(-c3cccnc3OCC(F)(F)F)c[nH]c2n1)[C@@H]1C[C@@H]1F [Compound 126, (1S,2S)-2-fluoro-N-(3-(2-(2,2,2-trifluoroethoxy)pyridin-3-yl)-1H-pyrrolo[2,3-b]pyridin-6-yl)cyclopropane-1-carboxamide]
